SMILES strings stand for the structures. “Also recorded” adds a separate entry of the source.

Common to all, as to assay type: cell-based, human
The subject of test [1] is DUX4. In words: 24 hr 5-AzaC pulse of FSHD iPM (S2 cells), qPCR of MBD3L2 and MYH8 RNA. On the procedure: (§1) FIG. 11E: qPCR assays of the expression of DUX4 target gene (MBD3L2) RNA and a muscle gene (MYH8) RNA of S2 cells (top panel) and iMyoblasts (bottom panel) following 24 hr treatment with increasing doses of 5-AzaC. 5-AzaC-treated S2 cultures were cultured for 6 days of S2 growth medium (GM) and 7 days in S3 differentiation medium (DM). 5-AzaC-treated iMyoblasts were cultured for 6 days in myoblast growth medium (GM) and 4 days in Opti-MEM differentiation medium. qPCR data were normalized to RPL13A and relative expression is shown normalized to […].
To investigate epigenetic mechanisms responsible for DUX4 repression during reprogramming and iPM induction, a blinded screen was conducted to identify epigenetic drugs that activate DUX4 in FSHD iPM undergoing myogenesis.
iPMs were treated for 24 hr with a pulse of epigenetic drugs, followed by culturing for 7 days in iPM growth medium and 7 days of iPMC differentiation medium. The cultured iPMs were then subjected to qPCR analysis to determine the expression of MBD3L2 RNA (a DUX4 biomarker) and MYH8 RNA (a muscle differentiation marker data now shown). […] See, FIG. 11D. […]
For quantification of housekeeping genes, DUX4 biomarker or muscle differentiation marker expression, 20 ng of cDNA was used for each reaction. For quantification of DUX4 expression, 90-150 ng of cDNA was used in each reaction.
A general note: In qPCR the cycle at which signal appears reflects the starting amount.

Test [2] has as its system DUX4. In words: 5-AzaC treatment of FSHD ESC iPMs. The conditions noted are these: data not shown. The protocol: iPMs were treated for 24 hr with a pulse of epigenetic drugs, followed by culturing for 7 days in iPM growth medium and 7 days of iPMC differentiation medium. The cultured iPMs were then subjected to qPCR analysis to determine the expression of MBD3L2 RNA (a DUX4 biomarker) and MYH8 RNA (a muscle differentiation marker data now shown). […] See, FIG. 11D. […] et al., (2015). […] See, FIG. 11D.

The subject of test [3] is DUX4. In words: 5-AzaC treatment of proliferating iMyoblasts, qPCR in myotubes. The conditions noted are these: lower concentrations. The protocol:
as §1
iPMs were treated for 24 hr with a pulse of epigenetic drugs, followed by culturing for 7 days in iPM growth medium and 7 days of iPMC differentiation medium. The cultured iPMs were then subjected to qPCR analysis to determine the expression of MBD3L2 RNA (a DUX4 biomarker) and MYH8 RNA (a muscle differentiation marker data now shown). […] See, FIG. 11D. At high 5-AzaC concentrations, MYH8 RNA expression decreased. […] Rickard et al., (2015). […] See, FIG. 11D.
Ribonucleic acid (RNA) was isolated either from cells in culture or from xenoengrafted TA muscles using the RNeasy® Plus Mini Kit (Qiagen) or Aurum® Total RNA Fatty and Fibrous Tissue kit (Bio-Rad) respectively per the manufacturer's specifications. […]

The next test relates to genome. In words: Genome-wide methylome analysis using Illumina chip assays after 5-AzaC treatment. The conditions noted are these: data not shown.
Another test concerns DUX4 target gene. In words: Losmapimod treatment of FSHD1 iMyotubes, NanoString digital RNA assays. Details: dose or concentration left out as unconfirmed. The conditions noted are these: Pre- or Post-differentiation treatment with Losmapimod, N2 medium. From the text: FIG. 21A: Schematic of Losmapimod treatment protocols for Pre-drug administration at the initiation of iMyotube differentiation and at Post iMyotube differentiation after 4 days in N2 differentiation medium. FIG. 21B: NanoString digital RNA assays of DUX4 target gene and muscle gene expression in carrier treated (UT) FSHID1 iMyoblasts and in iMyotube cultures Pre- or Post-differentiation treatment with […] Losmapimod. Normalized counts of expression are presented on linear scale with each dot corresponding to an individual culture. Data are presented as mean±SEM for each condition. For NanoString RNA quantification, 50 ng or 150 ng of total RNA was used for cell culture and xenografted TA muscle, respectively. A muscle NanoString panel was constructed with human specific probes for muscle protein genes, muscle master regulatory genes, developmental transcription factors, signaling genes and multiple housekeeping genes and used for all analysis on an nCounter SprintR profiler (NanoString Technologies, Seattle, WA). Raw mRNA counts were normalized to a series of housekeeping genes (e.g., RPL13A, GAPDH, GUUSB, and VCP) using nSolverR software (NanoString Technologies, Seattle, WA).

Regarding `Nc1ncn([C@@H]2O[C@H](CO)[C@@H](O)[C@H]2O)c(=O)n1` [5-AzaC, 5-azacytidine], in the test with DUX4 [1] (24 hr pulse, then 7 days iPM growth medium and 7 days iPMC differentiation medium, qPCR), the “DUX4 expression, as assayed by MBD3L2 RNA biomarker expression” value is listed as “effectively increased DUX4 expression in a concentration dependent manner; also recorded: can be reversed”. Moreover, the “MYH8 RNA expression” value with DUX4 [1] (high 5-AzaC concentrations) is given as “decreased”. For the same compound, the DUX4 expression result with DUX4 [2] is recorded as “high levels of DUX4 expression”. In the test on DUX4 [3], the “DUX4 biomarker expression in myotubes” value was “only a small increase”. Also, in the test with genome, the “demethylation, genome-wide methylome analysis” value is listed as “selective demethylation of many sequences throughout the genome”.
Take `Cc1c(F)cc(C(=O)NC2CC2)cc1-c1ccc(C(=O)NCC(C)(C)C)cn1` [Losmapimod]: the “DUX4 target gene expression” value with DUX4 target gene is recorded as “decreases; also recorded: inhibited”.
